In patent publication US20030194434A1, “Bubbling tablet, bubbling bath additive tablet, bubbling washing detergent tablet, bubbling tablet for oral administration, and process for producing these” (priority 2000, published 2003) one finds kinetic viscosity data, which are given here for 6 compounds.

Structures are written as SMILES.

This data set is described as follows: Kinetic viscosity of saccharide solution, Ubbelohde viscosimeter, Japanese Pharmacopoeia 13th edition. Type of data set: physicochemical. The note with it: 0.5 g of component dissolved in 50 ml of water (25° C.). As for the experimental part: The value shown after each component in parenthesis is the kinetic viscosity of the solution in which 0.5 g of each component is dissolved in 50 ml of water (25° C.).

Regarding `OC[C@@H](O)[C@@H](O[C@H]1O[C@H](CO)[C@@H](O)[C@H](O)[C@H]1O)[C@H](O)[C@@H](O)CO` [maltitol], the kinetic viscosity came to 0.904 cSt.
As for `OC[C@@H](O)[C@@H](O)[C@H](O)[C@H](O)CO` [mannitol], the figure is 0.896 cSt; as for `OC[C@@H](O)[C@@H](O)[C@H](O)[C@@H](O)CO` [sorbitol], 0.897 cSt.
As to `OC[C@H]1O[C@@](CO)(O[C@H]2O[C@H](CO)[C@@H](O)[C@H](O)[C@H]2O)[C@@H](O)[C@@H]1O` [sucrose], the kinetic viscosity is 0.912 cSt.
As for `OC[C@H]1O[C@H](O[C@H]2O[C@H](CO)[C@@H](O)[C@H](O)[C@H]2O)[C@H](O)[C@@H](O)[C@@H]1O` [trehalose], the figure is 0.891 cSt; as for `OC[C@@H](O)[C@H](O)[C@@H](O)CO` [xylitol], 0.904 cSt.
